EPA's ToxValDB 9.5

Columns and labels:
Gallus gallus = details: oral, diet
[1] = subchronic, duration: 90 days, oral, diet, M/F, Sprague-Dawley, no effects
[2] = subchronic, duration: 90 days, oral
[3] = subchronic, duration: 13 weeks, oral, diet, M/F, no effects

## C=CC(C)(O)C/C=C/C(=C)C (stereo not given) [(E)-3,7-Dimethylocta-1,5,7-trien-3-ol]
Rattus norvegicus; [1]
  NOAEL: 44 mg/kg-day

## C=CCSC(=O)CCCCC [Allyl thiohexanoate]
Rattus norvegicus; [2]
  NOAEL: 6.63 mg/kg-day

## CSc1ccccc1 [Benzene, (methylthio)-]
Rattus norvegicus; [2]
  NOAEL: 0.43 mg/kg-day

## Cc1occc1SSc1ccoc1C [Bis(2-methyl-3-furyl)disulfide]
Rattus norvegicus; subchronic, duration: 90 days, oral, diet, M/F, Wistar, no effects
  NOAEL: 0.45 mg/kg-day
Rattus norvegicus; subchronic, duration: 90 days, oral, diet, Wistar, no effects
  NOAEL: 0.45 mg/kg-day

## CC(C)(c1ccc(OCC2CO2)cc1)c1ccc(OCC2CO2)cc1 (stereo not given) [Bisphenol A diglycidyl ether]
Rattus norvegicus; chronic, duration: 2 years, oral, gavage, M/F, Fischer 344, organ weight
  NOAEL: 15 mg/kg-day

## COc1ccc(O)c(C(C)(C)C)c1 [Butylated hydroxyanisole]
Rattus norvegicus; developmental, oral, Sprague-Dawley, development
  NOAEL: 100 mg/kg-day

## CCCCOC(=O)c1ccccc1C(=O)OCCCC [Dibutyl 1,2-benzenedicarboxylate]
Rattus norvegicus; reproduction developmental, oral, F, histopathology: nonneoplastic
  LOAEL: 2 mg/kg-day

## CC(C)SSSC(C)C [Diisopropyl trisulfide]
Rattus norvegicus; subchronic, duration: 13 weeks, oral, gavage
  NOEL: 4.8 mg/kg-day

## CS(C)=O [Dimethyl sulfoxide]
Rattus norvegicus; repeat dose other, oral, gavage, F, no effects
  NOAEL: 1000 mg/kg-day

## C[N+](C)(C)[C@@H](Cc1c[nH]c(=S)[nH]1)C(=O)[O-] [Ergothioneine]
Rattus norvegicus; reproduction developmental, duration: 13 weeks, oral, diet, M/F, Sprague-Dawley, no effects
  NOEL: 725 mg/kg-day
Rattus norvegicus; short-term, duration: 28 days, oral, gavage, M/F, Sprague-Dawley, hematological
  NOAEL: 800 mg/kg-day

## CCCCCCCCCCCC(=O)N[C@@H](CCCN=C(N)N)C(=O)OCC.Cl [Ethyl-N2-dodecanoyl-L-argininate hydrochloride]
Rattus norvegicus; subchronic, duration: 13 weeks, oral, M/F, Sprague-Dawley, clinical chemistry
  NOAEL: 47 mg/kg-day

## CCN(Cc1cccc(S(=O)(=O)[O-])c1)c1ccc(C(=C2C=CC(=[N+](CC)Cc3cccc(S(=O)(=O)[O-])c3)C=C2)c2ccccc2S(=O)(=O)[O-])cc1.[Na+].[Na+] [FD&C Blue No. 1]
Rattus norvegicus; chronic, duration: 30 months, oral, diet, M/F, mortality
  NOAEL: 631 mg/kg-day
Rattus norvegicus; chronic, other
  NOAEL: 631 mg/kg-day

## NCC(=O)[O-].NCC(=O)[O-].[Fe+2] [Ferrous bisglycinate]
Rattus norvegicus; acute, oral, M/F, mortality
  LD50: 2800 mg/kg-day
Rattus norvegicus; subchronic, duration: 13 weeks, oral, Sprague-Dawley, no effects
  NOAEL: 500 mg/kg-day

## C=O [Formaldehyde]
Gallus gallus; short-term, duration: 28 days, no effects
  LEL: 990 mg/kg-day
Rattus norvegicus; chronic, duration: 104 weeks, oral, drinking water, M/F, Wistar, histopathology: nonneoplastic
  NOAEL: 15 mg/kg-day

## CCOC(OCC)c1ccco1 [Furan, 2-(diethoxymethyl)-]
Rattus norvegicus; subchronic, duration: 90 days, oral, diet, M/F, Fischer 344, hematological
  NOEL: 54 mg/kg-day

## CC(C=O)c1ccccc1 (stereo not given) [Hydratropaldehyde]
Rattus norvegicus; chronic, duration: 15 weeks, oral, gavage, M/F, organ weight
  NOAEL: 50 mg/kg-day

## NCCCC[C@H](N)C(=O)O.O=S(=O)(O)O [L-Lysine sulphate]
Rattus norvegicus; subchronic, duration: 90 days, oral, gavage, M/F, Sprague-Dawley, histopathology: neoplastic
  LEL: 1000 mg/kg-day

## C=CC(C)(O)CCC=C(C)C (stereo not given) [Linalool]
Rattus norvegicus; short-term, duration: 28 days, oral, M/F, histopathology: nonneoplastic
  NOAEL: 117 mg/kg-day

## COC(=O)c1cc(Cl)ccc1Cl [Methyl 2,5-dichlorobenzoate]
Rattus norvegicus; short-term, duration: 28 days, oral, clinical signs
  NOAEL: 100 mg/kg-day

## CNc1ccccc1C(=O)OC [Methyl N-methylanthranilate]
Rattus norvegicus; subchronic, duration: 90 days, organ weight
  NOAEL: 20 mg/kg-day

## COC(=O)c1ccccc1O [Methyl salicylate]
Canidae; chronic, duration: 2 years, Dog Other
  NOAEL: 50 mg/kg-day
Rattus norvegicus; chronic, duration: 2 years, oral, growth
  NOAEL: 50 mg/kg-day

## COC(=O)CSCc1ccco1 [Methyl {[(furan-2-yl)methyl]sulfanyl}acetate]
Rattus norvegicus; subchronic, duration: 90 days, oral, diet, M/F, clinical chemistry
  NOAEL: 5.78 mg/kg-day

## C=CC(=C)CCC=C(C)C [Myrcene]
Rattus norvegicus; [1]
  NOAEL: 44 mg/kg-day

## C[C@@H]1O[C@@H](O[C@H]2[C@H](Oc3cc(O)c4c(c3)O[C@H](c3ccc(O)cc3)CC4=O)O[C@H](CO)[C@@H](O)[C@@H]2O)[C@H](O)[C@H](O)[C@H]1O [Naringin]
Rattus norvegicus; chronic, duration: 400 days, oral, diet, food consumption
  NOAEL: 1250 mg/kg-day

## O=C(O)c1cc(=O)[nH]c(=O)[nH]1 [Orotic acid]
Rattus norvegicus; chronic, duration: 20 weeks, oral, diet, histopathology: neoplastic
  NOAEL: 50 mg/kg-day

## O=C(/C=C/C=C/c1ccc2c(c1)OCO2)N1CCCCC1 [Piperine]
Rattus norvegicus; subchronic, duration: 90 days, oral, diet, M/F, Crj:CD, clinical chemistry
  NOAEL: 5 mg/kg-day

## O=Cc1ccc2c(c1)OCO2 [Piperonal]
Rattus norvegicus; chronic, duration: 2 years
  NOAEL: 250 mg/kg-day

## SCCc1cnccn1 [Pyrazineethanethiol]
Rattus norvegicus; [3]
  NOAEL: 1.63 mg/kg-day

## CSc1cnccn1 [Pyrazinyl methyl sulfide]
Rattus norvegicus; [3]
  NOAEL: 1.63 mg/kg-day

## CCSC(C)=O [S-Ethyl thiolacetate]
Rattus norvegicus; subchronic, duration: 13 weeks, oral, diet
  NOEL: 6.5 mg/kg-day

## CN(C)CC(=O)O.[H-].[Na+] [Sodium N,N-dimethylglycinate]
Gallus gallus; subchronic, duration: 39 days, M/F, food consumption
  LEL: 10000 mg/kg-day

## O=C1O[C@H]([C@H](O)CO)C([O-])=C1O.[Na+] [Sodium erythorbate]
Rattus norvegicus; chronic, duration: 2 years, oral, drinking water, M/F, Fischer 344, body weight
  NOAEL: 650 mg/kg-day

## [Na+].[Na+].[O-]B1OB2OB([O-])OB(O1)O2 [Sodium tetraborate (Na2B4O7)]
Rattus norvegicus; developmental, duration: 20 days, F, Sprague-Dawley, development
  NOAEL: 55 mg/kg-day

## OC[C@H]1O[C@@H]2O[C@H]3[C@H](O)[C@@H](O)[C@@H](O[C@H]4[C@H](O)[C@@H](O)[C@@H](O[C@H]5[C@H](O)[C@@H](O)[C@@H](O[C@H]6[C@H](O)[C@@H](O)[C@@H](O[C@H]7[C@H](O)[C@@H](O)[C@@H](O[C@H]1[C@H](O)[C@H]2O)O[C@@H]7CO)O[C@@H]6CO)O[C@@H]5CO)O[C@@H]4CO)O[C@@H]3CO [alpha-Cyclodextrin]
Canidae; subchronic, duration: 90 days, oral, diet, M/F, Beagle, no effects
  NOAEL: 10000 mg/kg-day
